In brackets after ≈: the same amount, converted by molar mass. Structures can show the parent of a compound that is named as a salt. Where two headings read alike, the source gives them in different places. Each block holds one compound with its values, some of them ahead of it.
Columns and labels:
[1] = storage stability (temperature / relative humidity); type: physicochemical; details: at least two weeks
[2] = solubility in water; type: physicochemical
[3] = temperature not stated; cited from earlier work

stable upon storage ([1]; about 25°C, relative humidity (RH) about 60%): stable | stable upon storage ([1]; about 40°C, RH about 75%): stable | solubility in water at 37 °C [2]: 33.9 mg/mL
SMILES: CCCCCCOC(=O)NC(=N)c1ccc(NCc2nc3cc(C(=O)N(CCC(=O)OCC)c4ccccn4)ccc3n2C)cc1 [Dabigatran etexilate bismesylate]

solubility in water at 37 °C ([2]; mesylate salt): 14.7 mg/mL
SMILES: CCCCCCOC(=O)NC(=N)c1ccc(NCc2nc3cc(C(=O)N(CCC(=O)OCC)c4ccccn4)ccc3n2C)cc1 [Dabigatran etexilate monomesylate, ethyl 3-{[(2-{[(4-{N'-[(hexyloxy)carbonyl]carbamimidoyl}phenyl)amino]methyl}-1-methyl-1H-benzimid-azol-5-yl)carbonyl] (2-pyridinyl)amino}propanoate mesylate salt, reference compound]

SMILES: CCCCCCOC(=O)NC(=N)c1ccc(NCc2nc3cc(C(=O)N(CCC(=O)OCC)c4ccccn4)ccc3n2C)cc1 [Dabigatran etexilate, Ethyl 3-[(2-{[4-(hexyloxycarbonylaminoiminomethyl)phenylamino]methyl}-1-methyl-1H-benzimidazole-5-carbonyl)pyridin-2-ylamino]propionate base]
solubility in water [3]: 1.8 mg/mL (≈ 2870 µM)

Reference: EP2603503B1, “DABIGATRAN ETEXILATE BISMESYLATE SALT, SOLID STATE FORMS AND PROCESS FOR PREPARATION THEREOF” (ratiopharm GmbH, priority 2010, dated 2012)
